Where a name gives a salt, the structure may show the parent alone.
Key:
Assay type in all cases: in vivo
[1] = test system: SORHA (Sorghum halepense (L.) Pers., johnsongrass); experiment: Example III postemergence foliar-applied mixtures, row crop weeds (corn, soybean), greenhouse: SORHA
Description: Seeds or nutlets of the desired test plant species were planted in a soil matrix prepared by mixing a loam or sandy loam soil (e.g., 43 percent silt, 19 percent clay, and 38 percent sand, with a pH of about 8.1 and an organic matter content of about 1.5 percent) and calcareous grit in an 80 to 20 ratio. The soil matrix was contained in plastic pots with a surface area of 84.6 square centimters (cm^2) and a volume of 560 cubic centimeters (cm^3). […] The plants were grown for 7-31 days (d) in a greenhouse with an approximate 15 hour (h) photoperiod which was maintained at about 23-29° C. during the day and 22-28° C. during the night. Nutrients (Peters Excel® 15-5-15 5-Ca 2-Mg) and water were added on a regular basis and supplemental lighting was provided with overhead metal halide 1000-Watt lamps as necessary. The plants were employed for testing when they reached the first, second, or third true leaf stage.
Treatments consisted of the acid or esters of 4-amino-3-chloro-5-fluoro-6-(4-chloro-2-fluoro-3-methoxy-phenyl)pyridine-2-carboxylic acid (Compound A), each formulated as an
SC (suspension concentrate), and various herbicidal components alone and in combination. Forms of compound A were applied on an acid equivalent basis.
Other herbicidal components were applied on an acid equivalent or active ingredient basis and included the 5-enolpyruvylshikimate-3-phosphate synthase (EPSPS)-inhibiting herbicide, glyphosate dimethylamine salt, formulated as Durango DMA® and the glutamine synthase (GS)-inhibiting herbicide, glufosinate ammonium, formulated as Ignite® 280.
For treatments comprised of formulated compounds, measured amounts of compounds were placed individually in 25 mL glass vials and diluted in a volume of 1.5% (v/v) Agri-dex® crop oil concentrate to obtain 6× stock solutions. […] Application solutions were prepared by adding an appropriate amount of each stock solution (typically 2 mL) and diluted to the appropriate final concentrations with the addition of an aqueous mixture of 1.5% (v/v) crop oil concentrate and water so that the final spray solutions contained 1.25% (v/v) crop oil concentrate.
All stock solutions and applications solutions were visually inspected for compound compatibility prior to application. Compound requirements are based upon a 12 mL application volume at a rate of 187 liters per hectare (L/ha). Formulated compounds were applied to the plant material with an overhead Mandel track sprayer equipped with 8002E nozzles calibrated to deliver 187 L/ha over an application area of 0.503 square meters (m^2) at a spray height of 18 to 20 inches (46 to 50 cm) above the average plant canopy height. Control plants were sprayed in the same manner with the solvent blank.
(§1) The treated plants and control plants were placed in a greenhouse as described above and watered by sub-irrigation to prevent wash-off of the test compounds. After approximately 2 weeks, the condition of the test plants as compared with that of the untreated plants was determined visually and scored on a scale of 0 to 100 percent where 0 corresponds to no injury or growth inhibition and 100 corresponds to complete kill.
The following equation was used to calculate the expected activity of mixtures containing two active ingredients, A and B: […]

[2] = test system: LEFCH (Leptochloa chinensis (L.) Nees, Chinese sprangletop); experiment: Example I postemergence foliar-applied mixtures, direct seeded rice weeds, greenhouse: LEFCH
Description: (§2) Seeds or nutlets of the desired test plant species were planted in a soil matrix prepared by mixing a loam or sandy loam soil (e.g., 28.6 percent silt, 18.8 percent clay, and 52.6 percent sand, with a pH of about 5.8 and an organic matter content of about 1.8 percent) and calcareous grit in an 80 to 20 ratio. The soil matrix was contained in plastic pots with a volume of 1 quart and a surface area of 83.6 square centimeters (cm^2). […] The plants were grown for 8-22 days in a greenhouse with an approximate 14 hr photoperiod which was maintained at about 29° C. during the day and 26° C. during the night. Nutrients (Peters Excel® 15-5-15 5-Ca 2-Mg and iron chelate) were applied in the irrigation solution as needed and water was added on a regular basis. Supplemental lighting was provided with overhead metal halide 1000-Watt lamps as necessary. The plants were employed for testing when they reached the first through fourth true leaf stage.
(§3) Treatments consisted of the acid or esters of 4-amino-3-chloro-5-fluoro-6-(4-chloro-2-fluoro-3-methoxy-phenyl)pyridine-2-carboxylic acid (Compound A), each formulated as an SC (suspension concentrate), and various herbicidal components alone and in combination. Forms of compound A were applied on an acid equivalent basis.
(§4) For treatments comprised of formulated compounds, measured amounts of compounds were placed individually in 25 mL glass vials and diluted in a volume of 1.25% (v/v) Agri-Dex® crop oil concentrated to obtain 12× stock solutions. […] Application solutions were prepared by adding an appropriate amount of each stock solution (e.g., 1 mL) and diluted to the appropriate final concentrations with the addition of 10 mL of an aqueous mixture of 1.25% (v/v) crop oil concentrate so that the final spray solutions contained 1.25+/−0.05% (v/v) crop oil concentrate.
(§5) All stock solutions and applications solutions were visually inspected for compound compatibility prior to application. Spray solutions were applied to the plant material with an overhead Mandel track sprayer equipped with a 8002E nozzles calibrated to deliver 187 L/ha over an application area of 0.503 m^2 at a spray height of 18 to 20 inches (46 to 50 cm) above average plant canopy height. Control plants were sprayed in the same manner with the solvent blank.
as §1, with “3” for “2”
(§6) Colby's equation was used to determine the herbicidal effects expected from the mixtures (Colby, S. R. 1967. Calculation of the synergistic and antagonistic response of herbicide combinations. Weeds 15:20-22.).

[3] = test system: DIGSA (Digitaria sanguinalis (L.) Scop., large crabgrass); experiment: Example I postemergence foliar-applied mixtures, direct seeded rice weeds, greenhouse: DIGSA
Description: as §2, §3, §4, §5
as §1, with “3” for “2”
as §6

[4] = test system: ECHCG (Echinochloa crusgalli (L.) Beauv., barnyardgrass); experiment: Example I postemergence foliar-applied mixtures, direct seeded rice weeds, greenhouse: ECHCG
Description: as §2, §3, §4, §5
as §1, with “3” for “2”
as §6

[5] = test system: ECHCO (Echinochloa colona (L.) Link, junglerice); experiment: Example I postemergence foliar-applied mixtures, direct seeded rice weeds, greenhouse: ECHCO
Description: as §2, §3, §4, §5
as §1, with “3” for “2”
as §6

[6] = test system: IPOHE (Ipomoea hederacea Jacq., ivyleaf morningglory); experiment: Example I postemergence foliar-applied mixtures, direct seeded rice weeds, greenhouse: IPOHE
Description: as §2, §3, §4, §5
as §1, with “3” for “2”
as §6

[7] = Compound A Benzyl Ester alone, 4.38 gae/ha
[8] = Compound A Benzyl Ester alone, 8.75 gae/ha
[9] = Compound A Benzyl Ester alone, 17.5 gae/ha
[10] = Compound A Benzyl Ester alone, 8 gae/ha
[11] = Compound A Benzyl Ester alone, 16 gae/ha
[12] = Compound A Acid alone, 3.75 gae/ha
[13] = Compound A Acid alone, 19.4 gae/ha
[14] = Compound A Acid alone, 4.38 gae/ha
[15] = Compound A Acid alone, 8.75 gae/ha
[16] = Compound A Acid alone, 17.5 gae/ha
[17] = glufosinate ammonium alone, 271 gae/ha
[18] = glufosinate ammonium alone, 135.5 gae/ha

COc1c(Cl)ccc(-c2nc(C(=O)OCc3ccccc3)c(Cl)c(N)c2F)c1F [Compound A Benzyl Ester]
Visual Weed Control (%) - 13 DAA SORHA Obs ([1]; Compound A Benzyl Ester alone, 3.75 gae/ha): 0%
Visual Weed Control (%) - 13 DAA SORHA Obs ([1]; Compound A Benzyl Ester alone, 7.5 gae/ha): 0%
Visual Weed Control (%) - 13 DAA SORHA Obs ([1]; Compound A Benzyl Ester alone, 15 gae/ha): 10%
Visual Weed Control (%) - 21 DAA LEFCH Obs [2, 7]: 0%
Visual Weed Control (%) - 21 DAA LEFCH Obs [2, 8]: 40%
Visual Weed Control (%) - 21 DAA LEFCH Obs [2, 9]: 45%
Visual Weed Control (%) - 21 DAA DIGSA Obs [3, 10]: 25%
Visual Weed Control (%) - 20 DAA DIGSA Obs [3, 11]: 18%
Visual Weed Control (%) - 21 DAA DIGSA Obs [3, 11]: 30%
Visual Weed Control (%) - 21 DAA ECHCG Obs [4, 7]: 10%
Visual Weed Control (%) - 21 DAA ECHCG Obs [4, 8]: 85%
Visual Weed Control (%) - 21 DAA ECHCO Obs [5, 7]: 70%
Visual Weed Control (%) - 21 DAA ECHCO Obs [5, 8]: 75%
Visual Weed Control (%) - 21 DAA IPOHE Obs [6, 7]: 10%
Visual Weed Control (%) - 21 DAA IPOHE Obs [6, 10]: 10%
Visual Weed Control (%) - 21 DAA IPOHE Obs [6, 8]: 10%
Visual Weed Control (%) - 20 DAA IPOHE Obs [6, 11]: 18%
Visual Weed Control (%) - 21 DAA IPOHE Obs [6, 11]: 10%
Visual Weed Control (%) - 21 DAA IPOHE Obs [6, 9]: 25%
Visual Weed Control (%) - 21 DAA IPOHE Obs ([6]; Compound A Benzyl Ester alone, 32 gae/ha): 45%

COc1c(Cl)ccc(-c2nc(C(=O)O)c(Cl)c(N)c2F)c1F [Compound A Acid, 4-amino-3-chloro-6-(4-chloro-2-fluoro-3-methoxyphenyl)-5-fluoropyridine-2-carboxylic acid]
Visual Weed Control (%) - 13 DAA SORHA Obs [1, 12]: 0%
Visual Weed Control (%) - 16 DAA SORHA Obs [1, 12]: 0%
Visual Weed Control (%) - 13 DAA SORHA Obs ([1]; Compound A Acid alone, 7.5 gae/ha): 0%
Visual Weed Control (%) - 13 DAA SORHA Obs ([1]; Compound A Acid alone, 15 gae/ha): 0%
Visual Weed Control (%) - 21 DAA LEFCH Obs ([2]; Compound A Acid alone, 17.5 gae/ha (Table 2)): 30%
Visual Weed Control (%) - 21 DAA LEFCH Obs ([2]; Compound A Acid alone, 17.5 gae/ha (Tables 1, 9)): 0%
Visual Weed Control (%) - 20 DAA LEFCH Obs [2, 13]: 5%
Visual Weed Control (%) - 21 DAA DIGSA Obs [3, 14]: 35%
Visual Weed Control (%) - 21 DAA DIGSA Obs [3, 15]: 50%
Visual Weed Control (%) - 21 DAA DIGSA Obs [3, 16]: 40%
Visual Weed Control (%) - 20 DAA DIGSA Obs [3, 13]: 13%
Visual Weed Control (%) - 21 DAA ECHCG Obs [4, 14]: 15%
Visual Weed Control (%) - 21 DAA ECHCG Obs [4, 15]: 50%
Visual Weed Control (%) - 21 DAA ECHCO Obs ([5]; Compound A Acid alone, 4.38 gae/ha (Table 2)): 60%
Visual Weed Control (%) - 21 DAA ECHCO Obs ([5]; Compound A Acid alone, 4.38 gae/ha (Tables 1, 9)): 70%
Visual Weed Control (%) - 21 DAA ECHCO Obs ([5]; Compound A Acid alone, 8.75 gae/ha (Table 2)): 90%
Visual Weed Control (%) - 21 DAA ECHCO Obs ([5]; Compound A Acid alone, 8.75 gae/ha (Tables 1, 9)): 75%
Visual Weed Control (%) - 21 DAA IPOHE Obs [6, 14]: 10%
Visual Weed Control (%) - 21 DAA IPOHE Obs [6, 15]: 35%
Visual Weed Control (%) - 21 DAA IPOHE Obs [6, 16]: 45%

CP(=O)(O)CCC(N)C(=O)O (stereo not drawn) [Glufosinate ammonium salt, 2-amino-4-(hydroxymethylphosphinyl)butanoic acid monoammonium salt, reference compound]
Visual Weed Control (%) - 13 DAA SORHA Obs [1, 17]: 20%
Visual Weed Control (%) - 13 DAA SORHA Obs ([1]; glufosinate ammonium alone, 542 gae/ha): 25%
Visual Weed Control (%) - 21 DAA LEFCH Obs [2, 18]: 0%
Visual Weed Control (%) - 21 DAA LEFCH Obs [2, 17]: 10%
Visual Weed Control (%) - 21 DAA DIGSA Obs [3, 18]: 0%
Visual Weed Control (%) - 21 DAA ECHCG Obs [4, 18]: 60%
Visual Weed Control (%) - 21 DAA ECHCG Obs [4, 17]: 10%
Visual Weed Control (%) - 21 DAA ECHCO Obs [5, 18]: 0%
Visual Weed Control (%) - 21 DAA ECHCO Obs [5, 17]: 0%
Visual Weed Control (%) - 21 DAA IPOHE Obs ([6]; glufosinate ammonium alone, 112.5 gai/ha): 10%
Visual Weed Control (%) - 20 DAA IPOHE Obs ([6]; glufosinate ammonium alone, 542 gai/ha): 50%

From patent US20140031227A1, “HERBICIDAL COMPOSITIONS COMPRISING 4-AMINO-3-CHLORO-5-FLUORO-6-(4-CHLORO-2-FLUORO-3-METHOXYPHENYL) PYRIDINE-2-CARBOXYLIC ACID OR A DERIVATIVE THEREOF AND GLYPHOSATE OR GLUFOSINATE” (DOW AGROSCIENCES LLC, priority 2012, published 2014)
